Results reported in patent US6914045B2, “Glycopeptide antibiotics” (Wyeth Holdings Corporation, priority 2001, dated 2005).
Values after ≈ are worked out from the molar mass of the structure shown.

Experiments:
Assay in all cases: in vitro antibacterial evaluation, MIC by broth dilution
Assay type in all cases: cell-based
Streptococcus sp. = conditions: broth dilution, 18 hours at 35° C.
Outline: (§1)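 Inoculum 5×10^5 CFU/mL; concentrations 64 to 0.06 μg/mL; MIC defined as lowest inhibitory level. Conducted by broth dilution under NCCLS guidelines.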

Escherichia coli = conditions: 18 hours at 35° C.
Outline: as §1

Enterococcus sp. = conditions: broth dilution, 18 hours at 35° C.
Outline: as §1

Staphylococcus sp. = conditions: broth dilution, 18 hours at 35° C.
Outline: as §1

CC(c1ccccc1)C1NC(=O)CNC(=O)C(CO)NC(=O)C(C(O)C2CNC(=N)N2C2OC(CO)C(O)C(O)C2O)NC(=O)C(C(O)C2CNC(=N)N2)NC(=O)C(Cc2ccc(OC3OC(CO)C(OC4OC(CO)C(O)C5OC(CC67CC8CC(CC(C8)C6)C7)OC45)C(O)C3O)cc2)NC1=O (stereo not shown) [Example 128]
MIC Streptococcus agalactiae (GC 4564) (Streptococcus sp.; Streptococcus agalactiae (GC 4564)): 0.25 µg/mL (≈ 0.172 µM) | MIC Streptococcus pneumoniae (ATCC 6301) (Streptococcus sp.; Streptococcus pneumoniae (ATCC 6301)): 0.25 µg/mL (≈ 0.172 µM) | MIC Streptococcus pneumoniae (GC 1894) (Streptococcus sp.; Streptococcus pneumoniae (GC 1894)): <0.06 µg/mL | MIC Streptococcus pneumoniae (GC 4565) (Streptococcus sp.; Streptococcus pneumoniae (GC 4565)): 0.12 µg/mL (≈ 0.0824 µM) | MIC Streptococcus pyogenes (GC 4563) (Streptococcus sp.; Streptococcus pyogenes (GC 4563)): 0.5 µg/mL (≈ 0.344 µM) | MIC Streptococcus pneumoniae (ATCC 6301) (Streptococcus sp.; strain ATCC 6301): 0.25 µg/mL (≈ 0.172 µM) | MIC Streptococcus pneumoniae (GC 1894) (Streptococcus sp.; strain GC 1894): <0.06 µg/mL | MIC Streptococcus pyogenes (GC 4563) (Streptococcus sp.; strain GC 4563): 0.5 µg/mL (≈ 0.344 µM) | MIC Streptococcus agalactiae (GC 4564) (Streptococcus sp.; strain GC 4564): 0.25 µg/mL (≈ 0.172 µM) | MIC Streptococcus pneumoniae (GC 4565) (Streptococcus sp.; strain GC 4565): 0.12 µg/mL (≈ 0.0824 µM) | MIC Escherichia coli (ATCC 25922) (Escherichia coli; strain ATCC 25922): 32 µg/mL (≈ 22 µM) | MIC Escherichia coli (GC 4559) (Escherichia coli; strain GC 4559): 32 µg/mL (≈ 22 µM) | MIC Escherichia coli (GC 4560) (Escherichia coli; strain GC 4560): 4 µg/mL (≈ 2.75 µM) | MIC Enterococcus avium (GC 4558) (Enterococcus sp.; Enterococcus avium (GC 4558)): 4 µg/mL (≈ 2.75 µM) | MIC Enterococcus faecalis (ATCC 29212) (Enterococcus sp.; Enterococcus faecalis (ATCC 29212)): 4 µg/mL (≈ 2.75 µM) | MIC Enterococcus faecalis (GC 2242) (Enterococcus sp.; Enterococcus faecalis (GC 2242)): 4 µg/mL (≈ 2.75 µM) | MIC Enterococcus faecalis (GC 2691) (Enterococcus sp.; Enterococcus faecalis (GC 2691)): 4 µg/mL (≈ 2.75 µM) | MIC Enterococcus faecalis (GC 3059) (Enterococcus sp.; Enterococcus faecalis (GC 3059)): 4 µg/mL (≈ 2.75 µM) | MIC Enterococcus faecalis (GC 4552) (Enterococcus sp.; Enterococcus faecalis (GC 4552)): 4 µg/mL (≈ 2.75 µM) | MIC Enterococcus faecalis (GC 4553) (Enterococcus sp.; Enterococcus faecalis (GC 4553)): 4 µg/mL (≈ 2.75 µM) | MIC Enterococcus faecalis (GC 4554) (Enterococcus sp.; Enterococcus faecalis (GC 4554)): 4 µg/mL (≈ 2.75 µM) | MIC Enterococcus faecalis (GC 6189) (Enterococcus sp.; Enterococcus faecalis (GC 6189)): 4 µg/mL (≈ 2.75 µM) | MIC Enterococcus faecium (GC 2243) (Enterococcus sp.; Enterococcus faecium (GC 2243)): 4 µg/mL (≈ 2.75 µM) | MIC Enterococcus faecium (GC 4556) (Enterococcus sp.; Enterococcus faecium (GC 4556)): 4 µg/mL (≈ 2.75 µM) | MIC Enterococcus faecium (GC 4557) (Enterococcus sp.; Enterococcus faecium (GC 4557)): 4 µg/mL (≈ 2.75 µM) | MIC Enterococcus faecalis (ATCC 29212) (Enterococcus sp.; strain ATCC 29212): 4 µg/mL (≈ 2.75 µM) | MIC Enterococcus faecalis (GC 2242) (Enterococcus sp.; strain GC 2242): 4 µg/mL (≈ 2.75 µM) | MIC Enterococcus faecium (GC 2243) (Enterococcus sp.; strain GC 2243): 4 µg/mL (≈ 2.75 µM) | MIC Enterococcus faecalis (GC 2691) (Enterococcus sp.; strain GC 2691): 4 µg/mL (≈ 2.75 µM) | MIC Enterococcus faecalis (GC 3059) (Enterococcus sp.; strain GC 3059): 4 µg/mL (≈ 2.75 µM) | MIC Enterococcus faecalis (GC 4552) (Enterococcus sp.; strain GC 4552): 4 µg/mL (≈ 2.75 µM) | MIC Enterococcus faecalis (GC 4553) (Enterococcus sp.; strain GC 4553): 4 µg/mL (≈ 2.75 µM) | MIC Enterococcus faecalis (GC 4554) (Enterococcus sp.; strain GC 4554): 4 µg/mL (≈ 2.75 µM) | MIC Enterococcus faecium (GC 4556) (Enterococcus sp.; strain GC 4556): 4 µg/mL (≈ 2.75 µM) | MIC Enterococcus faecium (GC 4557) (Enterococcus sp.; strain GC 4557): 4 µg/mL (≈ 2.75 µM) | MIC Enterococcus avium (GC 4558) (Enterococcus sp.; strain GC 4558): 4 µg/mL (≈ 2.75 µM) | MIC Enterococcus faecalis (GC 6189) (Enterococcus sp.; strain GC 6189): 4 µg/mL (≈ 2.75 µM) | MIC Staphylococcus aureus (ATCC 29213) (Staphylococcus sp.): 2 µg/mL (≈ 1.37 µM) | MIC Staphylococcus aureus (GC 1131) (Staphylococcus sp.): 4 µg/mL (≈ 2.75 µM) | MIC Staphylococcus aureus (GC 3051) (Staphylococcus sp.): 2 µg/mL (≈ 1.37 µM) | MIC Staphylococcus aureus (GC 3053) (Staphylococcus sp.): 2 µg/mL (≈ 1.37 µM) | MIC Staphylococcus aureus (GC 4541) (Staphylococcus sp.): 2 µg/mL (≈ 1.37 µM) | MIC Staphylococcus aureus (GC 4542) (Staphylococcus sp.): 2 µg/mL (≈ 1.37 µM) | MIC Staphylococcus aureus (GC 4544) (Staphylococcus sp.): 4 µg/mL (≈ 2.75 µM) | MIC Staphylococcus aureus (GC 4545) (Staphylococcus sp.): 2 µg/mL (≈ 1.37 µM) | MIC Staphylococcus aureus (GC 1131) (Staphylococcus sp.; inoculum 5×10^5 CFU/mL, strain GC 1131): 4 µg/mL (≈ 2.75 µM) | MIC Staphylococcus aureus (ATCC 29213) (Staphylococcus sp.; strain ATCC 29213): 2 µg/mL (≈ 1.37 µM) | MIC Staphylococcus aureus (GC 3051) (Staphylococcus sp.; strain GC 3051): 2 µg/mL (≈ 1.37 µM) | MIC Staphylococcus aureus (GC 3053) (Staphylococcus sp.; strain GC 3053): 2 µg/mL (≈ 1.37 µM) | MIC Staphylococcus aureus (GC 4541) (Staphylococcus sp.; strain GC 4541): 2 µg/mL (≈ 1.37 µM) | MIC Staphylococcus aureus (GC 4542) (Staphylococcus sp.; strain GC 4542): 2 µg/mL (≈ 1.37 µM) | MIC Staphylococcus aureus-SMITH (GC 4543) (Staphylococcus sp.; strain GC 4543): 2 µg/mL (≈ 1.37 µM) | MIC Staphylococcus aureus (GC 4544) (Staphylococcus sp.; strain GC 4544): 4 µg/mL (≈ 2.75 µM) | MIC Staphylococcus aureus (GC 4545) (Staphylococcus sp.; strain GC 4545): 2 µg/mL (≈ 1.37 µM) | MIC Staphylococcus haemolyticus (GC 4546) (Staphylococcus sp.; strain GC 4546): 2 µg/mL (≈ 1.37 µM) | MIC Coagulase Negative Staphylococcus (GC 4547) (Staphylococcus sp.; strain GC 4547): 4 µg/mL (≈ 2.75 µM) | MIC Coagulase Negative Staphylococcus (GC 4548) (Staphylococcus sp.; strain GC 4548): 2 µg/mL (≈ 1.37 µM) | MIC Coagulase Negative Staphylococcus (GC 4549) (Staphylococcus sp.; strain GC 4549): 2 µg/mL (≈ 1.37 µM) | MIC Coagulase Negative Staphylococcus (GC 4551) (Staphylococcus sp.; strain GC 4551): 4 µg/mL (≈ 2.75 µM) | MIC Coagulase Negative Staphylococcus (GC 6257) (Staphylococcus sp.; strain GC 6257): 2 µg/mL (≈ 1.37 µM) | MIC Staphylococcus aureus-SMITH (GC 4543) (Staphylococcus sp.; strain SMITH GC 4543): 2 µg/mL (≈ 1.37 µM)
